Laboratory results reported in ChEMBL document CHEMBL1158188, “Natural polyphenols (vegetable tannins) as drugs: possible modes of action” (J Nat Prod, 1996).
pIC50: −log10 of the molar value.

Tests used:
[1] = Binding affinity to bradykinin
[2] = Antioxidant activity assessed by superoxide anion scavenging assay; type: functional
[3] = Antioxidant activity assessed by hydroxyl radical scavenging assay; type: functional
[4] = Antioxidant activity assessed by singlet oxygen scavenging assay; type: functional
[5] = Octanol-water partition coefficient of the compound; type: physicochemical; settings: read-out: log KOW
[6] = Binding affinity to desarginyl(1)bradykinin
[7] = Binding affinity to desarginyl(9)bradykinin
[8] = Binding affinity to bradykinin peptide Arg-Pro-Pro-Gly-Phe

Row | Compound | Ka [1] | pIC50 [2] | pIC50 [3] | pIC50 [4] | also measured
1 | O=C(OC[C@H]1O[C@@H](OC(=O)c2cc(O)c(O)c(O)c2)[C@H](O)[C@@H](OC(=O)c2cc(O)c(O)c(O)c2)[C@@H]1O)c1cc(O)c(O)c(O)c1 | 4.4 M⁻¹ | – | – | – | –
2 | O=C1O[C@H]([C@@H](O)CO)C(O)=C1O [ASCORBIC ACID] | – | 4.63 | 4.73 | 3.92 | –
3 | O=C(O)c1cc(O)c(O)c(O)c1 [GALLIC ACID] | – | 6.00 | 4.11 | 4.16 | –
4 | O=C1OC[C@H]2OC(=O)c3cc(O)c(O)c(O)c3-c3c(O)c(O)c(O)c4c3C(=O)O[C@H]([C@H]3OC(=O)c5c-4c(O)c(O)c(O)c5[C@H]3O)[C@@H]2OC(=O)c2cc(O)c(O)c(O)c2-c2c1cc(O)c(O)c2O [CASTALAGIN] | – | – | – | – | logP [5]: 0.1
5 | CCCOC(=O)c1cc(O)c(O)c(O)c1 [PROPYL GALLATE] | – | 5.85 | 4.06 | 4.18 | –
6 | O=C1OCC2OC(=O)c3cc(O)c(O)c(O)c3-c3c(O)c(O)c(O)c4c3C(=O)OC(C2OC(=O)c2cc(O)c(O)c(O)c2-c2c1cc(O)c(O)c2O)C1OC(=O)c2c-4c(O)c(O)c(O)c2C1O (stereo unspecified) [VESCALAGIN] | – | – | – | – | logP [5]: 0.1
7 | Oc1cc(O)c2c(c1)O[C@H](c1ccc(O)c(O)c1)[C@H](O)[C@H]2c1c(O)cc(O)c2c1O[C@H](c1ccc(O)c(O)c1)[C@H](O)C2 | 8.2 M⁻¹ | – | – | – | –
8 | O=C(OC[C@H]1O[C@@H](OC(=O)c2cc(O)c(O)c(O)c2)[C@H](OC(=O)c2cc(O)c(O)c(O)c2)[C@@H](OC(=O)c2cc(O)c(O)c(O)c2)[C@@H]1OC(=O)c1cc(O)c(O)c(O)c1)c1cc(O)c(O)c(O)c1 | 33.7 M⁻¹ | – | – | – | Ka [6]: 20 M⁻¹; Ka [7]: 20.4 M⁻¹; Ka [8]: 13 M⁻¹
9 | O=C(OC[C@H]1O[C@@H](OC(=O)c2cc(O)c(O)c(O)c2)[C@H](OC(=O)c2cc(O)c(O)c(O)c2)[C@@H](O)[C@@H]1OC(=O)c1cc(O)c(O)c(O)c1)c1cc(O)c(O)c(O)c1 | 20.5 M⁻¹ | – | – | – | –
10 | O=C(OC[C@@H]1OC(O)[C@](O)(COC(=O)c2cc(O)c(O)c(O)c2)[C@H]1O)c1cc(O)c(O)c(O)c1 (stereo partly specified) [HAMAMELITANIN] | – | 5.88 | 5.26 | 4.34 | –
